Laboratory results reported in US7166744B2, “Retinoid derivatives and methods for producing said compounds and anti-cancer pharmaceutical composition comprising said compounds” (Chebigen Co., Ltd., priority 2001, dated 2007).
“Also recorded” adds a separate entry of the source.

How the values were obtained:
Type in all cases: cell-based
[1] = test system: HCT116 colon cancer cells; experiment: MTT proliferation assay, HCT116
Protocol: (§1) The effects of test compounds on proliferation of various cancer cells was examined by 3-(4,5-dimethylthiazol-2-yl)-2,5-diphenyltetrazolium bromide (MTT, Sigma) assay in a dose dependent manner. In the MTT assay, colon, liver, cervix, ovary, and breast cancer cell lines were treated with test compounds at various concentrations. Living cancer cells reduce MTT to dark blue MTT formazan that would be measured by absorbance.
(§2) Colon cancer cells, HCT116, DLD-1 and HT29, cervix cancer cells, HeLa and CaSki, ovary cancer cells, SKOV-3, 2774 and OVCAR-3, liver cancer cells, SK-Hep-1, PLCPRF5 and HepG2, and breast cancer cells, ZR75-1 and MDA-MB 231 were seeded at an initial density of 3000 cells per well in 96-well plates. After attachment of cells to the walls of the wells, the medium containing fresh retinoid was treated with various concentrations (0.5 μM, 1 μM, 2.5 μM, 5 μM, 10 μM) for 48 hours. 50 μl of MTT solution (2 mg/ml in PBS) was added to cell culture media. The reaction micture was incubated at 37° C. in a 5% CO2 atmosphere for 4 hours. The supernatant was removed and 150 μl of DMSO was added. The optical density was measured spectrophotometrically at 550 nm. […] For other retinoid derivatives according to the present invention, absorbances were measured by this procedure and IC50 values, concentrations required for 50% growth inhibition, were determined.

HT29 colon cancer cells = experiment: MTT proliferation assay, HT29
Protocol: as §1, §2

[2] = test system: CaSki cervix cancer cells; experiment: MTT proliferation assay, CaSki; conditions: 48 hours, uterine cancer
Protocol: as §1, §2

[3] = test system: SKOV-3 ovary cancer cells; experiment: MTT proliferation assay, SKOV-3; conditions: ovarian cancer
Protocol: as §1, §2

[4] = test system: PLCPRF5 liver cancer cells; experiment: MTT proliferation assay, PLCPRF5
Protocol: as §1, §2

[5] = test system: MDA-MB-231 breast cancer cells; experiment: MTT proliferation assay, MDA-MB-231
Protocol: as §1, §2

[6] = test system: HCT116 colon cancer cells; experiment: Trypan blue surviving cell count, HCT116; conditions: for relative surviving cells (%): trypan blue
Text: (§3) Surviving cells, which had not be stained by trypan blue were counted and the results are shown in Table 3 as relative surviving cells (%).

[7] = test system: HCT116 colon cancer cells; experiment: DNA fragmentation assay (agarose gel), HCT116; conditions: for fragmentation of chromosomal DNA (agarose gel): Experimental Example 8, cells treated as above; for DNA ladder (DNA fragmentation): HCT116, 2.5, 5.0, 10 μM, 48 hours
Protocol: After treated with each retinoid derivative at various concentrations (2.5, 5.0, 10 μM) for 48 hours, HCT116 or MCF-7 cells were poured in 1 mL of PBS and centrifuged at a rate of 13,000 rpm at 4° C. for 1 min. The resulting cell pellets were resuspended in 700 μl of lysis buffer (500 mM Tris, 100 mM EDTA, 0.5% SDS) containing 17.5 μl of proteinase K (20 mg/ml), and incubated on 55° C. water bath for 3 hours. The lysates were mixed with 700 μl of phenol solution while slowly stirring and centrifuged at 12,000 rpm for 5 min. The supernatants were separated and extracted with phenol once more. The supernatants were mixed with 600 μl of 100% ethanol and 60 μl of 3M NaOAc (pH 7.0) and left at −20° C. for 2 hours. The supernatants were removed by centrifugation at 12,000 rpm for 10 min to obtain pellets. After 70% ethanol washing and drying, DNA pellet was resuspended in 100 μl of TE (Tris-EDTA) buffer and treated with RNase A. The obtained samples were electrophoresed for 2 hours at 75 V on 1.8% agarose gels.
In order to confirm the above results, DNA was separated from the cells treated as above and examined for DNA fragmentation by agarose gel electrophoresis (FIG. 13).

AP-1 (c-Jun) = experiment: AP-1 CAT reporter assay (c-Jun cotransfection); conditions: 1 μM; for AP-1 reporter CAT expression, −c-Jun/−RARα: control = 1.0; for AP-1 reporter CAT expression, +c-Jun/+RARα / AP-1 reporter CAT expression, +c-Jun/−RARα: control = 5.0; for suppression of AP-1 activity: Experimental Example 5; for repression of AP-1 activity: Experimental Example 10, text
Text: As the reporter gene, the CAT enzyme gene with a site recognizing AP-1 of collagenase was used.

[8] = test system: MCF-7 breast cancer cells; experiment: MTT proliferation assay, MCF-7; conditions: 48 hours
DLD-1 colon cancer cells = experiment: Trypan blue surviving cell count, DLD-1
Text: as §3

[9] = test system: SK-Hep-1 liver cancer cells; experiment: Trypan blue surviving cell count, SK-HEP-1
Text: as §3

RXRγ = molecular target: T1, RXRγ (Homo sapiens, UniProt P48443); experiment: CAT reporter assay, RXRγ; conditions: 1 μM, control = 1.0, RA = 9-cis RA; for expression level of CAT enzyme, RXRγ −: column '−'
T1 construct: expressed in transfected cells
T1 sequence (P48443 1-463): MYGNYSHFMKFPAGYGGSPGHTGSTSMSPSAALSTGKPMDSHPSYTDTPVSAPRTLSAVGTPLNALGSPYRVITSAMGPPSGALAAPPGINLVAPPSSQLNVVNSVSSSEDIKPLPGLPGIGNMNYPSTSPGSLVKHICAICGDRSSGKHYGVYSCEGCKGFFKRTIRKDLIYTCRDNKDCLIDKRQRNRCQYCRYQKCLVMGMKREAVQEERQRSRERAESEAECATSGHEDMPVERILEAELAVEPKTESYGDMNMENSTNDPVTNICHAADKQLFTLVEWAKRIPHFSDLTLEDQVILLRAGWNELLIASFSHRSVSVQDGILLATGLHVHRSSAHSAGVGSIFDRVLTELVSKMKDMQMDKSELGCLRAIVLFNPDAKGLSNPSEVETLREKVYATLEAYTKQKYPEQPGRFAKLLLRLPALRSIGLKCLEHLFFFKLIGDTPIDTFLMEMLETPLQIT
Text: As the reporter gene, chloramphenicol acetyltransferase (CAT) with a transcription control site reactive to respective receptors was used.

Compound	fragmentation of chromosomal DNA (agarose gel) [7]	AP-1 reporter CAT expression, −c-Jun/−RARα (AP-1 (c-Jun))	AP-1 reporter CAT expression, +c-Jun/+RARα (AP-1 (c-Jun))	AP-1 reporter CAT expression, +c-Jun/−RARα (AP-1 (c-Jun))	IC50 ([1]; 48 hours)	IC50 (HT29 colon cancer cells; 48 hours)	IC50 [2]	IC50 ([3]; 48 hours)	IC50 ([5]; 48 hours)	IC50 [8]	relative surviving cells (%) ([6]; HCT116, 0.5 μM)	relative surviving cells (%) ([6]; HCT116, 1 μM)	relative surviving cells (%) ([6]; HCT116, 5 μM)	relative surviving cells (%) ([6]; HCT116, 10 μM)	relative surviving cells (%) (DLD-1 colon cancer cells; DLD-1, 0.5 μM)	relative surviving cells (%) (DLD-1 colon cancer cells; DLD-1, 1 μM)	relative surviving cells (%) (DLD-1 colon cancer cells; DLD-1, 5 μM)	relative surviving cells (%) (DLD-1 colon cancer cells; DLD-1, 10 μM)	relative surviving cells (%) ([9]; SK-HEP-1, 0.5 μM)	relative surviving cells (%) ([9]; SK-HEP-1, 1 μM)	other results
CC1=C(/C=C/C(C)=C/C=C/C(C)=C/C(=O)O)C(C)(C)CCC1 [ATRA, All-trans-retinoic acid, reference compound]	DNA ladder caused by fragmentation of chromosomal DNA was detected	0.6	2.0	3.5	–	–	–	–	–	–	–	–	–	–	–	–	–	–	–	–	IC50 ([1]; Homo sapiens, HCT-116, 48 hours): 20 µM; IC50 (HT29 colon cancer cells; Homo sapiens, HT-29, 48 hours): 18 µM; IC50 ([2]; Homo sapiens, Ca-Ski): 20 µM; IC50 ([3]; Homo sapiens, SK-OV-3, 48 hours): > 100 µM; IC50 ([4]; Homo sapiens, PLC-PRF-5, 48 hours): > 500 µM; IC50 ([5]; Homo sapiens, MDA-MB-231, 48 hours): > 100 µM; inhibition at 10 µM ([6]; Homo sapiens, HCT-116, HCT116, 10 μM, read-out: inhibition of proliferation): 10 to 30%
CC1=C(/C=C/C(C)=C/C=C/C(C)=C/C(=O)Nc2ccc(O)cc2)C(C)(C)CCC1 [HPR, (2E,4E,6E,8E)-[3,7-dimethyl-9-(2,6,6-trimethylcyclohex-1-enyl)-nona-2,4,6,8-tetraenoylamino]-4-hydroxyphenylamide]	–	0.7	2.2	3.7	6 to 8 µM	8 µM	2 µM	2 µM	10 µM	7 µM	91%	70%	45%	13%	94%	85%	63%	28%	90%	73%	IC50 ([4]; 48 hours): 20 µM; relative surviving cells (%) ([9]; SK-HEP-1, 5 μM): 45%; relative surviving cells (%) ([9]; SK-HEP-1, 10 μM): 15%; DNA ladder (DNA fragmentation) [7]: did not show any DNA ladder; expression level of CAT enzyme, RXRγ + (RXRγ): 1.5; expression level of CAT enzyme, RXRγ − (RXRγ): 1.3
CCCC(=O)Oc1cc(O)ccc1NC(=O)/C=C(C)/C=C/C=C(C)/C=C/C1=C(C)CCCC1(C)C [KCBG10, 2.2-[(2E,4E,6E,8E)-3,7-Dimethyl-9-(2,6,6-trimethylcyclohex-1-enyl)-nona-2,4,6,8-tetraenoylamino]-5-hydroxyphenylbutanoate]	–	–	–	–	3 µM	6 µM	0.5 µM	0.5 µM	3.5 µM	1.3 µM	–	–	–	–	–	–	–	–	–	–	IC50 ([4]; 48 hours): 12 µM; DNA ladder (DNA fragmentation) [7]: DNA band of the ladder shape caused by DNA fragmentation was well detected; suppression of AP-1 activity (AP-1 (c-Jun)): ~50%
CCCC(=O)Nc1cc(NC(=O)/C=C(C)/C=C/C=C(C)/C=C/C2=C(C)CCCC2(C)C)ccc1O [KCBG41, (2E,4E,6E,8E)-[3,7-dimethyl-9-(2,6,6-trimethylcyclohex-1-enyl)-nona-2,4,6,8-tetraenoylamino]-(3-butyrylamino-4-hydroxy)phenylamide]	–	–	–	–	1.4 µM	1.2 µM	3 µM	3 µM	3.3 µM	5.5 µM	–	–	–	–	–	–	–	–	–	–	DNA ladder (DNA fragmentation) [7]: DNA band of the ladder shape caused by DNA fragmentation was well detected; also recorded: at a similar concentration showed DNA fragmentation; suppression of AP-1 activity (AP-1 (c-Jun)): ~50%
CCCC(=O)Oc1ccc(NC(=O)/C=C(C)/C=C/C=C(C)/C=C/C2=C(C)CCCC2(C)C)cc1 [KCBG60]	DNA ladder caused by fragmentation of chromosomal DNA was detected	0.6	2.4	3.6	–	–	–	–	–	–	90%	75%	45%	10%	95%	85%	60%	30%	90%	75%	concentration at which inhibition of proliferation began ([6]; HCT116): 0.5 µM; inhibition of proliferation ([6]; HCT116, 10 μM): more than 90%; relative surviving cells (%) ([9]; SK-HEP-1, 5 μM): 48%; relative surviving cells (%) ([9]; SK-HEP-1, 10 μM): 10%; repression of AP-1 activity (AP-1 (c-Jun)): about 50%; expression level of CAT enzyme, RXRγ + (RXRγ): 1.4; expression level of CAT enzyme, RXRγ − (RXRγ): 1.2
phenyl butylate	did not induce any fragmentation of chromosomal DNA	1.0	5.3	4.7	–	–	–	–	–	–	103%	103%	95%	90%	105%	103%	102%	92%	102%	103%	relative surviving cells (%) ([9]; SK-HEP-1, 5 μM): 95%; relative surviving cells (%) ([9]; SK-HEP-1, 10 μM): 87%; repression of AP-1 activity (AP-1 (c-Jun)): did not affect; expression level of CAT enzyme, RXRγ + (RXRγ): 1.2; expression level of CAT enzyme, RXRγ − (RXRγ): 1.1
